Source: patent US11648289B2, “Antibacterial method” (priority 2016, dated 2023)
No end group written: not given here.

Experiments:
E. faecium UW6920 = details: E. faecium UW6920, isolated from blood
In short: (§1)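 Indicator strains were grown in BHI medium at 30° C without shaking and challenged with bacteriocin in a microtiter plate assay. MIC is the lowest bacteriocin concentration that inhibits growth by at least 50%, judged as 50% of the turbidity of the bacteriocin-free control culture.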

E. faecium 14-597963* = details: E. faecium 14-597963, isolated from blood, Vancomycin-resistant
In short: as §1

E. faecium 602589 = details: E. faecium 602589, isolated from blood
In short: as §1

E. faecium P040 INV-25 = details: E. faecium P040 INV-25, isolated from blood
In short: as §1

[1] = tested on: E. faecium LMGT2787 resistant mutants; details: only HR type found
In short: as §1

E. faecium P032 inv-4 = details: E. faecium P032 inv-4, isolated from blood
In short: as §1

E. faecium 928379 A* = details: isolated from blood, Vancomycin-resistant
In short: as §1

E. faecium 130409015079* = details: E. faecium 130409015079, isolated from blood, Vancomycin-resistant
In short: as §1

E. faecium A11 EFH2/00 = details: E. faecium A11 EFH2/00, isolated from blood
In short: as §1

E. faecium PO1402593* = details: E. faecium PO1402593, isolated from blood, Vancomycin-resistant
In short: as §1

Sa 3328 = test: microbe, parasite or virus in culture; details: Sa 3328 (S. aureus)
Procedure: (§2) All the strains (see below) used in minimal inhibitory concentration (MIC) assays (Ovchinnikov et al., 2017, Front Microbiol., 8, p774, doi:10.3389/fmicb.2017.00774) were grown in BHI medium (Oxoid) at 30° C. without shaking. The tested strains were obtained from the LMG collection. […] NisinZ and micrococcin P1 were purified from source. Synthesized peptides were solubilized to concentrations of 10.0-0.1 mg/ml in 0.1% (vol/vol) trifluoroacetic acid and stored at −20° C. until use. Garvicin KS is made up of 3 peptides:
(§3) Bacteriocin activity was determined using a microtitre plate assay. The plates were incubated at 30° C. for 8 h and the growth was measured spectrophotometrically at 600 nm (A600) with 15 min intervals using SPECTROstarNano (BMG LABTECH, Germany). The MIC was defined as the bacteriocin concentration that inhibited the growth of the indicator strain by at least 50% in 200 μl culture (i.e., 50% of the turbidity of the control culture without bacteriocin).

Sa ATCC 33591 = test: microbe, parasite or virus in culture; details: Sa ATCC 33591 (S. aureus)
Procedure: as §2, §3

Row | Sequence | MIC 50 (E. faecium UW6920) | MIC 50 (E. faecium 14-597963*) | MIC 50 (E. faecium 602589) | MIC 50 (E. faecium P040 INV-25) | resistance of HR type mutants compared to the WT [1] | MIC 50 (E. faecium P032 inv-4) | MIC 50 (E. faecium 928379 A*) | MIC 50 (E. faecium 130409015079*) | MIC 50 (E. faecium A11 EFH2/00) | MIC 50 (E. faecium PO1402593*) | MIC (Sa 3328) | MIC (Sa ATCC 33591)
1 | MKFKFNPTGTIVKKLTQYEIAWFKNKHGYYPWEIPRC [EntK1] | 0.045 µM | 0.045 µM | 0.045 µM | 0.02 µM | 500 times | 0.02 µM | 0.02 µM | 0.02 µM | 0.045 µM | 0.02 µM |  | 
2 | MLAKIKAMIKKFPNPYTLAAKLTTYEINWYKQQYGRYPWERPVA [EntEJ97] | 0.145 µM | 0.145 µM | 0.145 µM | 0.075 µM | 500 times | 0.037 µM | 0.075 µM | 0.037 µM | 0.075 µM | 0.075 µM | 6.25 µg/mL | >50 µg/mL
